Columns and labels:
Assay type in all cases: biochemical
[1] = biological target: T1, human IP6K2 (Homo sapiens, UniProt Q9UHH9); experiment: IP6K enzyme inhibitory assay (ADP-Glo Kinase Assay), human IP6K2; conditions: compound concentration 0.1 μM; read-out: ADP-Glo method inhibitory rate (%) human IP6K2
T1 construct: human IP6K2 (1-426) gene; GST; made in house; host or cells: Sf-9 insect cells
T1 sequence (Q9UHH9 1-426): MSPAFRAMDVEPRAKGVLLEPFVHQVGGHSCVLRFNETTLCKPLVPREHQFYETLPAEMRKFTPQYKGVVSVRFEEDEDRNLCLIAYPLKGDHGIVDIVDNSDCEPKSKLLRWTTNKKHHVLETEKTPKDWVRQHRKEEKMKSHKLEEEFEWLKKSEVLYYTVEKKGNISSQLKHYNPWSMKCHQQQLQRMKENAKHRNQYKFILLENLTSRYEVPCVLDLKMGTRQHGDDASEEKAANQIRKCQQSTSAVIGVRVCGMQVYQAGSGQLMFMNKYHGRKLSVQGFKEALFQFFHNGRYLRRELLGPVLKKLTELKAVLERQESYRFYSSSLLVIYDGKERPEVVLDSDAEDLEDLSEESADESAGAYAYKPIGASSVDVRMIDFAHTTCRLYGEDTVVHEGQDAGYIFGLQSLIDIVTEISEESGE
Method: (§1) IP6K Enzyme Inhibitory Assay
(§2) Human IP6K3 enzyme was prepared by transducing human IP6K3 (1-410) gene into BL21 (DE3) Escherichia coli and purifying by Ni-NTA (nickel-nitrilotriacetic acid) affinity column. […] The enzymes were used after preservation at −70° C. The IP6K enzyme inhibitory activity of the test compound was measured by the following experiment method and using ADP-Glo™ Kinase Assay (manufactured by Promega). A test compound diluted with an assay buffer (20 mM HEPES (pH 7.5), 6 mM MgCl2, 0.01% Tween-20, 1 mM DTT) was first added by 2 μL to a 384 well plate. […] The IP6K enzyme solution diluted with the assay buffer was added by 2 μL to start the enzyme reaction. Incubation was performed at room temperature for a given time (120 min for rat IP6K3 alone, 60 min for others). After incubation at room temperature, ADP-Glo solution prepared according to the protocol of Promega was added by 3 μL to the 384 well plate and reacted at room temperature for 30 min. Thereafter, Kinase-Detection solution was added by 6 μL to the 384 well plate and reacted at room temperature for 60 min. After the reaction, the luminescence intensity was measured by a plate reader Envision (manufactured by PerkinElmer).

[2] = biological target: T2, human IP6K3 (Homo sapiens, UniProt Q96PC2); experiment: IP6K enzyme inhibitory assay (ADP-Glo Kinase Assay), human IP6K3; conditions: compound concentration 0.1 μM; read-out: ADP-Glo method inhibitory rate (%) human IP6K3
T2 construct: human IP6K3 (1-410) gene; made in house; host or cells: BL21 (DE3) Escherichia coli
T2 sequence (Q96PC2 1-410): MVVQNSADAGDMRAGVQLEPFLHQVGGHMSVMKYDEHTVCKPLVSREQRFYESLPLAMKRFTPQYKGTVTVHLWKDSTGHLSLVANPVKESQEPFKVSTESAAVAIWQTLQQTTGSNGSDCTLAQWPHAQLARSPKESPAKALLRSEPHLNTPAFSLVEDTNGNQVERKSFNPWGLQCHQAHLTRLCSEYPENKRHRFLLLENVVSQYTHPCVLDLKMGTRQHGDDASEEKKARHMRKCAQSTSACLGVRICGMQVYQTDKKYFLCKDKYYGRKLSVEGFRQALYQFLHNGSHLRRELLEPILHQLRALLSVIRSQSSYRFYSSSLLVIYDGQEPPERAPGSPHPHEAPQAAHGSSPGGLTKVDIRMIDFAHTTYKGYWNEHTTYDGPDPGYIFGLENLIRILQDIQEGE
Method: as §1, §2

[3] = biological target: T3, human IP6K1 (Homo sapiens, UniProt Q92551); experiment: IP6K enzyme inhibitory assay (ADP-Glo Kinase Assay), human IP6K1; conditions: compound concentration 0.1 μM; read-out: ADP-Glo method inhibitory rate (%) human IP6K1
T3 construct: human IP6K1 (1-441) gene; GST; made in house; host or cells: Sf-9 insect cells
Method: as §1, §2

T3 sequence (Q92551 whole entry): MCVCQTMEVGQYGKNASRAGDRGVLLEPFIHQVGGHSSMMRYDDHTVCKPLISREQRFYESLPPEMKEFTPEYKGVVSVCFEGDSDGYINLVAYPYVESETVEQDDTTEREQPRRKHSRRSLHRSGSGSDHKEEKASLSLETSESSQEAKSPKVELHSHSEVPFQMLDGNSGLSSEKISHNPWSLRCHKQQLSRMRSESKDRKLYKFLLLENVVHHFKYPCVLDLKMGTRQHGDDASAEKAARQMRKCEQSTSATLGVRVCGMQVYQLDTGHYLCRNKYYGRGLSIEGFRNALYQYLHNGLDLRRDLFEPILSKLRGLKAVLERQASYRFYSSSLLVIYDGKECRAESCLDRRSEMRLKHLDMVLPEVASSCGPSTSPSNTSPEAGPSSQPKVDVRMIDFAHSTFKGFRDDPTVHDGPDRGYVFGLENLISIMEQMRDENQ

| inhibition at 0.1 µM [1] [%] | inhibition at 0.1 µM [2] [%] | inhibition at 0.1 µM [3] [%] | SMILES |
| --- | --- | --- | --- |
| 97 | 98 | 95 | O=C(O)c1ccc2c(c1)[C@]1(CC[C@@H](Oc3ccc(C(F)(F)F)cn3)CC1)C(=O)N2 [Example 25, (1r,4r)-2′-oxo-4-((5-(trifluoromethyl)pyridin-2-yl)oxy)-1′,2′-dihydrospiro[cyclohexane-1,3′-indole]-5′-carboxylic acid] |
| 97 | 92 | 98 | Cc1ccc(C(F)(F)F)c(O[C@H]2CC[C@@]3(CC2)C(=O)Nc2ccc(C(=O)O)cc23)n1 [Example 26] |
| 93 | 96 | 97 | O=C(O)c1ccc2c(c1)[C@]1(CC[C@@H](Oc3ncc(C(F)(F)F)cc3F)CC1)C(=O)N2 [Example 27, (1r,4r)-4-((3-fluoro-5-(trifluoromethyl)pyridin-2-yl)oxy)-2′-oxo-1′,2′-dihydrospiro[cyclohexane-1,3′-indole]-5′-carboxylic acid] |
| 98 | 96 | 95 | O=C(O)c1ccc2c(c1)[C@]1(CC[C@@H](Oc3ncc(Cl)cc3C(F)(F)F)CC1)C(=O)N2 [Example 28, (1r,4r)-4-((5-chloro-3-(trifluoromethyl)pyridin-2-yl)oxy)-2′-oxo-1′,2′-dihydrospiro[cyclohexane-1,3′-indole]-5′-carboxylic acid] |
| 96 | 99 | 99 | O=C(O)c1ccc2c(c1)[C@]1(CC[C@@H](Oc3ncc(C(F)(F)F)cc3Cl)CC1)C(=O)N2 [Example 29, (1r,4r)-4-((3-chloro-5-(trifluoromethyl)pyridin-2-yl)oxy)-2′-oxo-1′,2′-dihydrospiro[cyclohexane-1,3′-indole]-5′-carboxylic acid] |
| 84 | 97 | 81 | O=C(O)c1ccc2c(c1)[C@]1(CC[C@@H](Oc3cc(OCc4ccccc4)ccn3)CC1)C(=O)N2 [Example 30, (1r,4r)-4-((4-(benzyloxy)pyridin-2-yl)oxy)-2′-oxo-1′,2′-dihydrospiro[cyclohexane-1,3′-indole]-5′-carboxylic acid] |
| 101 | 100 | 101 | O=C(O)c1ccc2c(c1)[C@]1(CC[C@@H](Oc3ncc(C4CC4)cc3C(F)(F)F)CC1)C(=O)N2 [Example 31, (1r,4r)-4-((5-cyclopropyl-3-(trifluoromethyl)pyridin-2-yl)oxy)-2′-oxo-1′,2′-dihydrospiro[cyclohexane-1,3′-indole]-5′-carboxylic acid] |
| 67 | 88 | 63 | Cc1ncccc1O[C@H]1CC[C@@]2(CC1)C(=O)Nc1ccc(C(=O)O)cc12 [Example 32, (1r,4r)-4-((2-methylpyridin-3-yl)oxy)-2′-oxo-1′,2′-dihydrospiro[cyclohexane-1,3′-indole]-5′-carboxylic acid] |
| 40 | 74 | 37 | Cc1cncc(O[C@H]2CC[C@@]3(CC2)C(=O)Nc2ccc(C(=O)O)cc23)c1 [Example 33, (1r,4r)-4-((5-methylpyridin-3-yl)oxy)-2′-oxo-1′,2′-dihydrospiro[cyclohexane-1,3′-indole]-5′-carboxylic acid] |
| 76 | 91 | 63 | Cc1ccc(O[C@H]2CC[C@@]3(CC2)C(=O)Nc2ccc(C(=O)O)cc23)cn1 [Example 34, (1r,4r)-4-((6-methylpyridin-3-yl)oxy)-2′-oxo-1′,2′-dihydrospiro[cyclohexane-1,3′-indole]-5′-carboxylic acid] |
| 96 | 98 | 82 | Cc1ccc(O[C@H]2CC[C@@]3(CC2)C(=O)Nc2ccc(C(=O)O)cc23)c(C)n1 [Example 35, (1r,4r)-4-((2,6-dimethylpyridin-3-yl)oxy)-2′-oxo-1′,2′-dihydrospiro[cyclohexane-1,3′-indole]-5′-carboxylic acid] |
| 92 | 95 | 72 | Cc1cc(C)c(O[C@H]2CC[C@@]3(CC2)C(=O)Nc2ccc(C(=O)O)cc23)cn1 [Example 36, (1r,4r)-4-((4,6-dimethylpyridin-3-yl)oxy)-2′-oxo-1′,2′-dihydrospiro[cyclohexane-1,3′-indole]-5′-carboxylic acid] |
| 50 | 82 | 51 | O=C(O)c1ccc2c(c1)[C@]1(CC[C@@H](Oc3cnc4c(c3)CCCO4)CC1)C(=O)N2 [Example 37, (1r,4r)-4-(3,4-dihydro-2H-pyrano[2,3-b]pyridin-6-yloxy)-2′-oxo-1′,2′-dihydrospiro[cyclohexane-1,3′-indole]-5′-carboxylic acid] |
| 47 | 86 | 55 | Cc1cc(C)nc(O[C@H]2CC[C@@]3(CC2)C(=O)Nc2ccc(C(=O)O)cc23)n1 [Example 38, (1r,4r)-4-((4,6-dimethylpyrimidin-2-yl)oxy)-2′-oxo-1′,2′-dihydrospiro[cyclohexane-1,3′-indole]-5′-carboxylic acid] |
| 74 | 95 | 80 | Cc1nc(O[C@H]2CC[C@@]3(CC2)C(=O)Nc2ccc(C(=O)O)cc23)nc(C)c1Cl [Example 39, (1r,4r)-4-((5-chloro-4,6-dimethylpyrimidin-2-yl)oxy)-2′-oxo-1′,2′-dihydrospiro[cyclohexane-1,3′-indole]-5′-carboxylic acid] |
| 18 | 49 | 14 | Cc1cc(O[C@H]2CC[C@@]3(CC2)C(=O)Nc2ccc(C(=O)O)cc23)nc(C)n1 [Example 40, (1r,4r)-4-((2,6-dimethylpyrimidin-4-yl)oxy)-2′-oxo-1′,2′-dihydrospiro[cyclohexane-1,3′-indole]-5′-carboxylic acid] |
| 93 | 98 | 93 | Cc1ccccc1O[C@H]1CC[C@@]2(CC1)C(=O)Nc1ccc(C(=O)O)cc12 [Example 41, (1r,4r)-4-(2-methylphenoxy)-2′-oxo-1′,2′-dihydrospiro[cyclohexane-1,3′-indole]-5′-carboxylic acid] |
| 90 | 97 | 81 | Cc1cccc(O[C@H]2CC[C@@]3(CC2)C(=O)Nc2ccc(C(=O)O)cc23)c1 [Example 42, (1r,4r)-4-(3-methylphenoxy)-2′-oxo-1′,2′-dihydrospiro[cyclohexane-1,3′-indole]-5′-carboxylic acid] |
| 99 | 100 | 98 | Cc1ccc(O[C@H]2CC[C@@]3(CC2)C(=O)Nc2ccc(C(=O)O)cc23)cc1 [Example 43, (1r,4r)-4-(4-methylphenoxy)-2′-oxo-1′,2′-dihydrospiro[cyclohexane-1,3′-indole]-5′-carboxylic acid] |
| 83 | 94 | 88 | N#Cc1ccccc1O[C@H]1CC[C@@]2(CC1)C(=O)Nc1ccc(C(=O)O)cc12 [Example 44, (1r,4r)-4-(2-cyanophenoxy)-2′-oxo-1′,2′-dihydrospiro[cyclohexane-1,3′-indole]-5′-carboxylic acid] |

From patent US10968178B2, “IP6K inhibitors” (TAKEDA PHARMACEUTICAL COMPANY LIMITED, priority 2017, dated 2021)
